Measurements published in article PMC8704709, “Improved Anticancer Activities of a New Pentafluorothio-Substituted Vorinostat-Type Histone Deacetylase Inhibitor” (Pharmaceuticals, 2021).

What was measured:
[1] = system: caspase-3 activity in DU145 cells; experiment: Apoptosis-specific caspase-3 activation (AC-DEVD-AMC cleavage); format: cell-based, human; details: 24 h treatment, 1–10 µM
Procedure: (§1) Changes in caspase-3 activity were measured by the cleavage of the fluorogenic substrate AC-DEVD-AMC (EMD Millipore, Billerica, MA, USA), as described previously. […] Subsequently, the lysates were incubated for 1 h at 37 °C with a substrate solution containing 20 μg/mL AC-DEVD-AMC, 20 mM HEPES, 10% glycerol and 2 mM DTT at pH 7.5.

[2] = system: caspase-3 activity in Hep-G2 cells; experiment: as above; format: cell-based, human; details: 24 h treatment, 1–10 µM
Procedure: as §1

Hep-G2 cells [3] = experiment: Western blot in Hep-G2 cells (acetyl-H3, Apaf-1, Bcl-2); format: cell-based, human; details: 24 h
Procedure: Western blots were performed as described earlier. Cells were seeded in 100 mm petri dishes, grown to almost confluency, treated for 24 h, washed and frozen, followed by lysis with RIPA Buffer, added with one cOmplete™ Mini protease Inhibitor tablet/10 mL (Roche), and quantification with Pierce^TM BCA Protein Assay Kit (Thermo Fisher Scientific). Thereafter protein levels were normalized to untreated controls so equal protein loading of 20 µg/lane. Laemmli Buffer and β-mercaptoethanol were added before probes were desaturated at 96 °C for 10 min. First, 7.5% or 12% SDS gels (Biorad, Munich, Germany) were loaded with proteins and electrophoresis was done. Thereafter, proteins were transferred to activated polyvinylidene difluoride membranes (PVDF) by electroblotting. Finally, the membranes were blocked with 1% BSA and incubated with primary antibodies over night at 4 °C. […] Only the Jurkat cells had already a high level of α-tubulin in untreated cells and, thus, drug-induced changes were not detectable in these cells.
Blots were washed three times with 1% TBS-Tween and incubated with anti-mouse or anti-rabbit peroxidase-coupled anti-IgG secondary antibodies (1:5000–1:10,000) at room temperature for 60 min. Subsequently, antibody bondage was illustrated using Clarity and Clarity Max ECL Western Blotting Substrates (Biorad, Munich, Germany) for detection and Celvin-S developer (Biostep, software SnapAndGo Vs 1.8.1) for development. […] Values were normalized to β-actin expression, which served as a loading control and compared to untreated control expressions which was set at 1. The mean ± SEM of the relative values to control are illustrated with Graph Pad Prism 8.

DU145 cells = experiment: Unspecific cytotoxicity (LDH release); format: cell-based, human; details: 1–10 µM, 3 and 24 h
Procedure: To exclude unspecific cytotoxicity as the driving mode of action for antiproliferative effects, the release of lactate dehydrogenase (LDH) from DU145 cells was determined after 3 h and 24 h of treatment using the Cytotoxicity Detection Kit PLUS LDH (Roche Diagnostics GmbH, Mannheim, Germany). The assay was performed as described earlier. Cytotoxicity was determined by subtracting the percentage of LDH release into the supernatant under control conditions of those from treated samples. Measurements were performed in duplicate in n = 3 independent experiments and mean percentage changes ± SEM as compared to controls are shown.

human recombinant HDAC1 = molecular target: T1, human recombinant HDAC1 (Homo sapiens, UniProt Q13547); experiment: Fluorogenic subtype-specific HDAC assay; format: biochemical; details: cell-free enzymatic assay, 1–10 µM
T1 construct: purchased BPS Biosciences, San Diego, CA, USA

[4] = system: DU145 prostate carcinoma cells; experiment: Antiproliferative activity assay (crystal violet staining); format: cell-based; details: Homo sapiens, DU-145, as determined after 48 h, means ± SEM, n ≥ 3, read-out: Growth inhibitory activity IC50, DU145
Procedure: (§2) Stock solutions (10 mM) prepared by dissolution in DMSO were stored at −20 °C. Working solutions were always freshly prepared before each experiment by dilution of stock solution with medium. The final DMSO concentration never exceeded 0.25%. Treatment-induced changes in cell number were determined by crystal violet (N-hexamethylpararosaniline from Sigma Aldrich) staining. 1000 cells/well (DU145) or 1500 cells/well (Hep-G2) were seeded in 96-well plates and maintained for adherence in an incubator (37 °C, 5% CO2, humidified atmosphere) for 48 h prior to the beginning of the treatment. […] Thereafter, the cells were fixed with 1% glutaraldehyde and stained with 0.1% crystal violet. The unbound dye was removed by rinsing with water. Bound crystal violet was solubilized with 0.2% Triton X-100 (Sigma-Aldrich). Light extinction of crystal violet, which increases linearly with the cell number, was analyzed at 570 nm using an ELISA-Reader (Dynex Technologies, Denkendorf, Germany). For T-cell leukemia/lymphoma cell lines apoptosis was determined using dual staining for Annexin-V and 7AAD via flow cytometry.

[5] = system: Hep-G2 hepatoblastoma cells; experiment: as above; format: cell-based; details: Homo sapiens, HepG2, as determined after 48 h, means ± SEM, n ≥ 3, read-out: Growth inhibitory activity IC50, Hep-G2
Procedure: as §2

[6] = system: Human HDAC enzymes derived from HeLa cell nuclear extracts (pan-HDAC); experiment: Fluorogenic pan-HDAC activity assay; format: biochemical; details: cell free, 1–10 µM tested
[7] = system: chorioallantoic membrane (CAM) of fertilized chicken eggs; experiment: CAM assay (angiogenesis in fertilized chicken eggs); format: in vivo
Procedure: Anti-angiogenesis activity of SF5-SAHA was tested on the CAM (chorioallantoic membrane) of fertilized chicken eggs. The embryonic development was started by placing the eggs in a humidified (>60%) incubator in an upright position at a temperature of 37.8 °C. After 3 days, a hole of 2 mm was pierced in the eggshell top side in order to detach the developing CAM from the eggshell and let it sink into the allantoic cavity. After 10 days, the eggshell hole was broadened, and a silicone ring (1 cm Ø) was placed on the CAM, which was allowed to attach for 6 h. Then, 20 µL of SF5-SAHA containing medium or PBS (control) was added into the ring. The angiogenic states of the CAM were documented using a stereomicroscope equipped with a Kappa digital camera system (Distelkamp-Electronic, Kaiserslautern, Germany). Pictures were taken every 24 h until the finish of the experiment after 72 h. The CAM experiments were carried out with n = 3 eggs for each condition.

Hep-G2 cells [8] = experiment: Unspecific cytotoxicity (LDH release); format: cell-based, human; details: 1–10 µM, 3 and 24 h

T1 sequence (Q13547 whole entry): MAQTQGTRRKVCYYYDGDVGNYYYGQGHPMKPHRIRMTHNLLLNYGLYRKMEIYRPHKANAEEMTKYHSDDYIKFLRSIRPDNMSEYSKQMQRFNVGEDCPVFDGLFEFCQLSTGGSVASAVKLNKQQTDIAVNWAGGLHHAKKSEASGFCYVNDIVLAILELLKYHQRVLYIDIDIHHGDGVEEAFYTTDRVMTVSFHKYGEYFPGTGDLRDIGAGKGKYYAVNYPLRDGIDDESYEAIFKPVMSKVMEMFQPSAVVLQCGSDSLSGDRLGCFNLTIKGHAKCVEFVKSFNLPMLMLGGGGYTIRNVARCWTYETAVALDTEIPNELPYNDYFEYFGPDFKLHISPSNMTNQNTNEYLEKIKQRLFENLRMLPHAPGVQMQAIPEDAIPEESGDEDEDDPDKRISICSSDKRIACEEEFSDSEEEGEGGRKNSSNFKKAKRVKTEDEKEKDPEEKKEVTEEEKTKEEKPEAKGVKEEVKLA

## O=C(CCCCCCC(=O)Nc1ccc(S(F)(F)(F)(F)F)cc1)NO [SF5-SAHA]
[1]
  caspase-3 activation: 5–6 times of the activity of untreated cells
[2]
  caspase-3 activation: 5–6 times of the activity of untreated cells
Hep-G2 cells [3]; 2 µM and 4 µM
  Bcl-2 expression: downregulated
Hep-G2 cells [3]; 2 and 4 µM
  Apaf-1 expression: increased Apaf-1 expression
Hep-G2 cells [3]
  acetylated histone H3 level: dose-dependent rise of H3 acetylation
DU145 cells
  LDH release (unspecific cytotoxicity): did not induce significant increases in LDH release
Human recombinant HDAC1
  HDAC1 inhibition (comparison): comparable activities against HDAC1
[4]
  IC50: 0.73 ± 1.08 µM
[5]
  IC50: 1.79 ± 1.06 µM
[6]
  pan-HDAC inhibition IC50 (in words): submicromolar range
[7]; doses of 5 and 10 µM
  toxicity to chicken embryos: no toxicity
[7]; topical application, 5 or 10 µM, 72 h
  antiangiogenic effect on CAM: reduced vessel diameters and reduced numbers of vessel branches
Hep-G2 cells [8]
  LDH release (unspecific cytotoxicity): LDH levels were even decreased
